From patent publication US20240425478A1, “CYCLOPENTYLPYRAZOLE CDK2 INHIBITORS” (Genentech, Inc., priority 2021, published 2024)
Where two headings read alike, the source gives them in different places.

What was measured:
[1] = target: T1, Cyclin Dependent Kinase 1/Cyclin A2 (CDK1-cycA2) (Homo sapiens, UniProt P06493); experiment: CDK1-cycA2 TR-FRET (Lance) enzyme assay; type: biochemical; conditions: Table O, enzymatic assay
T1 construct: purchased ProQinase 0134-0054-1
Outline: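 Human CDK1/cyclin A2 pre-incubated 30 min with compound dose responses in 50 mM HEPES pH 7.5, 10 mM MgCl2, 2 mM TCEP, 0.05% BGG, 0.01% Brij 35. Reaction quenched with EDTA (15 mM final); TR-FRET readout using Eu-anti-phospho-4E-BP1, acceptor/donor ratio. Inhibition constants from Morrison equation.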

[2] = target: T2, Cyclin Dependent Kinase 2/Cyclin E1 (CDK2-cycE1) (Homo sapiens, UniProt P24941); experiment: CDK2-cycE1 TR-FRET (LANCE) enzyme assay; type: biochemical; conditions: for Ki: enzymatic assay, read-out: CDK2 Ki; for FS CDK1/CDK2 / FS CDK4/CDK2: fold selectivity; for increased fold-selectivity CDK4/CDK2 over Comparator C: (+) sign after FS CDK4/CDK2;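 on improvement in potency against CDK2 (Ki) over Comparator C: fold lower CDK2 Ki than comparator c (Ki 0.032 µM)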
T2 construct: purchased ProQinase 0050-0055-1
Outline: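 Compound dose responses pre-incubated 30 min with CDK2-cycE1 in 50 mM HEPES pH 7.5, 10 mM MgCl2, 2 mM TCEP, 0.05% BGG, 0.01% Brij 35. Reaction quenched with EDTA (15 mM final), phospho-MBP detected by Eu-anti-phospho-MBP TR-FRET (acceptor/donor ratio). Inhibition constants from Morrison equation.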

[3] = tested on: OVISE (JCRB1043, CCNE1-amplified); experiment: OVISE EdU incorporation cell proliferation assay (CDK2-dependent); type: cell-based; conditions: for IC50: cellular assay, read-out: CDK2 OVISE IC50; for FS SKOV-3/OVISE: fold selectivity; for increased fold-selectivity SKOV-3/OVISE over Comparator C: (+) sign after FS SKOV-3/OVISE; for improvement in CDK2 OVISE cell potency over Comparator C: in brackets after OVISE IC50, Comparator C 5.5 μM
Outline: (§1)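 Cells in RPMI/10% FBS dosed with compound (0.5% DMSO final) for 16 h at 37 °C, 5% CO2, then EdU 0.5 μM final for 8 h before fixation and imaging. IC50 from 4-parameter logistic fit of EdU-positive cell fraction versus dose.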

[4] = target: T3, Cyclin Dependent Kinase 4/Cyclin D3 (CDK4-cycD3) (Homo sapiens, UniProt P11802); experiment: CDK4-cycD3 TR-FRET (LANCE) enzyme assay; type: biochemical; conditions: Table O, enzymatic assay
T3 construct: purchased Carna Biosciences 04-105
T3 sequence (P11802 whole entry): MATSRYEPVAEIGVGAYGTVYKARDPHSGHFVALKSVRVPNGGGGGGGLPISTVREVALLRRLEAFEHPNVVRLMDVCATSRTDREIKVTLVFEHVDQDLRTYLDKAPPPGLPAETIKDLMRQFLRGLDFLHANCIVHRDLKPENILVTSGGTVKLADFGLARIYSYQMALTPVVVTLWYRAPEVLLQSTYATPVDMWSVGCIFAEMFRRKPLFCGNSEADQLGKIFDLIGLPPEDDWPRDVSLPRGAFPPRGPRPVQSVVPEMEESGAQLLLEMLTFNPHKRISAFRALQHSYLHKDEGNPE
T3 sequence (P30281 whole entry partner): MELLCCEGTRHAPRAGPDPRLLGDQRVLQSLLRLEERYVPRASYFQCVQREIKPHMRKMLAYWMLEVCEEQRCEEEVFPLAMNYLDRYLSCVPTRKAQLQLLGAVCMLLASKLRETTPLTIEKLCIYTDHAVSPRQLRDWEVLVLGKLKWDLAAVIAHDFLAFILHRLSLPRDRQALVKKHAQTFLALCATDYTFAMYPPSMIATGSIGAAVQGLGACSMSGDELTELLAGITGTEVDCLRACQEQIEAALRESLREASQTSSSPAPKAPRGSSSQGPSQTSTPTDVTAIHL
Outline: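 Compound dose responses pre-incubated 30 min with enzyme mix in 50 mM HEPES pH 7.5, 10 mM MgCl2, 2 mM TCEP, 0.05% BGG, 0.01% Brij 35. Reaction quenched with EDTA (15 mM final); Eu-anti-phospho-4E-BP1 TR-FRET detection, acceptor/donor ratio. Ki derived by Morrison equation.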

SKOV-3 (ATCC HTB-77) = experiment: SKOV-3 EdU incorporation cell proliferation assay (CDK4/6-dependent); type: cell-based; conditions: Homo sapiens, cellular assay, read-out: CDK4/6 SKOV-3 IC50
Outline: as §1

[5] = Table O, enzymatic CDK1 Ki over CDK2 Ki
[6] = Table O, enzymatic CDK4 Ki over CDK2 Ki
[7] = Table O, cellular SKOV-3 IC50 over OVISE IC50

T1 sequence (P06493 whole entry): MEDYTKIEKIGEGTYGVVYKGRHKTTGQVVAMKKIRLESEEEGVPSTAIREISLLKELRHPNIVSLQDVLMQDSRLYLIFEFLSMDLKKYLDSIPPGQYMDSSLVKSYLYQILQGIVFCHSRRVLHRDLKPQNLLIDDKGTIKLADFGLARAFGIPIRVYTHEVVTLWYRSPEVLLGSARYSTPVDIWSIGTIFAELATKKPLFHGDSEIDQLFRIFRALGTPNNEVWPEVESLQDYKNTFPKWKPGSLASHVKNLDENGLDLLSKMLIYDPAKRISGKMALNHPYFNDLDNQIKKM
T1 sequence (P20248 whole entry partner): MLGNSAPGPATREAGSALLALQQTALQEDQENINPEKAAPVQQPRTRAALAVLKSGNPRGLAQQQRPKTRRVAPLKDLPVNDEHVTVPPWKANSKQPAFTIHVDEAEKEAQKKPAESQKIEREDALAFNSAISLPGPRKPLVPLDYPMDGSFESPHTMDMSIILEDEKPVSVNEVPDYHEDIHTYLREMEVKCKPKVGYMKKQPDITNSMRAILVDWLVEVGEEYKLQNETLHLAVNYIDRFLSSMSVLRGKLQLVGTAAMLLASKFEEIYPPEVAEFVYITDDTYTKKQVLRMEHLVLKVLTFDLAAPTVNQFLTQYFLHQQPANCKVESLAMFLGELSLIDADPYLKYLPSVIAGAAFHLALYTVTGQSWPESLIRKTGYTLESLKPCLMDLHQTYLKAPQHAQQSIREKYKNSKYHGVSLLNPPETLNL

Row | Structure (SMILES) | Ki [1] | Ki ([2]; Table O) | FS CDK1/CDK2 [2, 5] | FS CDK4/CDK2 [2, 6] | IC50 ([3]; Table O) | FS SKOV-3/OVISE [3, 7] | Ki [4] | IC50 (SKOV-3 (ATCC HTB-77); SK-OV-3, Table O) | improvement in potency against CDK2 (Ki) over Comparator C [2] | increased fold-selectivity CDK4/CDK2 over Comparator C ([2]; Table Q) | Ki ([2]; Table Q) | FS CDK1/CDK2 ([2]; Table Q, enzymatic) | FS CDK4/CDK2 ([2]; Table Q, enzymatic) | increased fold-selectivity SKOV-3/OVISE over Comparator C ([3]; Table Q) | FS SKOV-3/OVISE ([3]; Table Q, cellular) | improvement in CDK2 OVISE cell potency over Comparator C ([3]; Table Q) | IC50 (SKOV-3 (ATCC HTB-77); SK-OV-3, Table Q)
1 | Cc1ncccc1Nc1cc([C@H]2CC[C@@H](OC(=O)N[C@H]3CCN(C)C3)C2)[nH]n1 [Example 7C, (1R,3S)-3-(3-((2-methylpyridin-3-yl)amino)-1H-pyrazol-5-yl)cyclopentyl ((S)-1-methylpyrrolidin-3-yl)carbamate] | 3500 nM | 260 nM | 13 | 16 | 8000 nM | >2.5 | 4200 nM | > 20000 nM |  |  |  |  |  |  |  |  | 
2 | Cc1ncc(Nc2cc([C@H]3CC[C@@H](OC(=O)NC(C)C)C3)[nH]n2)c(C)n1 [Example 2W, (1R,3S)-3-(3-((2,4-dimethylpyrimidin-5-yl)amino)-1H-pyrazol-5-y1)cyclopentyl isopropylcarbamate] | 1100 nM | 42 nM | 26 | 74 | 2700 nM | >7.4 | 3100 nM | > 20000 nM | 0.8 fold | (+) (The (+) sign in Table Q signifies desirable increased fold-selectivity of the exemplary compounds over Comparator C) | 42 nM | 26 | 74 | (+) (The (+) sign in Table Q signifies desirable increased fold-selectivity of the exemplary compounds over Comparator C) | > 7.4 | 2 fold | > 20000 nM
3 | CNc1ncc(Nc2cc([C@H]3CC[C@@H](OC(=O)NC(C)C)C3)[nH]n2)cn1 [Example 2GG, (1R,3S)-3-(3-((2-(methylamino)pyrimidin-5-yl)amino)-1H-pyrazol-5-yl)cyclopentyl isopropylcarbamate] | 8800 nM | 480 nM | 18 | 31 | > 20000 nM | 1 | 15000 nM | > 20000 nM |  |  |  |  |  |  |  |  | 
4 | COc1ccc(Nc2cc([C@H]3CC[C@@H](OC(=O)NC(C)C)C3)[nH]n2)nn1 [Example 2JJ, (1R,3S)-3-(3-((6-methoxypyridazin-3-yl)amino)-1H-pyrazol-5-yl)cyclopentyl isopropylcarbamate] | 1200 nM | 77 nM | 16 | 16 | 4100 nM | <1 | 1200 nM | 3.2 nM |  |  |  |  |  |  |  |  | 
5 | C[C@@H](NC(=O)O[C@@H]1CC[C@H](c2cc(Nc3cccnn3)n[nH]2)C1)C(F)(F)F (single isomer, unassigned) [Example 5B] | 310 nM | 26 nM | 12 | 20 | 2900 nM | >6.9 | 510 nM | > 20000 nM |  |  |  |  |  |  |  |  | 
6 | CC(C)NC(=O)O[C@@H]1CC[C@H](c2cc(Nc3ccc(-n4cccn4)nc3)n[nH]2)C1 [Example 2D, (1R,3S)-3-(3-((6-(1H-pyrazol-1-yl)pyridin-3-yl)amino)-1H-pyrazol-5-yl)cyclopentyl isopropylcarbamate] | 350 nM | 14 nM | 25 | 34 | 700 nM | 20 | 480 nM | 14000 nM | 2.3 fold | (+) (The (+) sign in Table Q signifies desirable increased fold-selectivity of the exemplary compounds over Comparator C) | 14 nM | 25 | 34 | (+) (The (+) sign in Table Q signifies desirable increased fold-selectivity of the exemplary compounds over Comparator C) | 20 | 7.9 fold | 14000 nM
